Data as given in patent US20230183243A1, “HETEROARYL DERIVATIVES AND PHARMACEUTICAL COMPOSITION COMPRISING SAME AS ACTIVE INGREDIENT” (VORONOI INC., priority 2019, published 2023).
Where two headings read alike, the source gives them in different places.

Tests used:
DU145 = test: Cell proliferation inhibition, carcinomas other than TNBC; type: cell-based
Description: (§1) To check an ability to inhibit the growth of (MDA-MB-231) cells in two triple-negative breast cancer cell lines, a test was performed, as follows. Cells were seeded in 180 μL of a culture broth at a density of 2,000 to 3,000 cells/well in a white clear bottom 96-well plate (Corning) according to the growth ability of each cell, and then cultured for 24 hours under conditions of 5% CO2 and 37° C. Thereafter, the compound was prepared by diluting a 10 mM stock solution three-fold with 100% DMSO at a total of 12 concentrations so that a peak concentration of the compound was in a range of 10 mM to 0.05 μM, and the diluted compound was then diluted in each cell culture medium so that a final concentration of the compound was in a range of 100 μM to 0.5 nM. 20 μL of a diluted solution diluted with a medium was added to the cell solution in which cells were seeded in the 96-well plate on the previous day so that a final concentration of the diluted solution was in a range of 10 μM to 0.05 nM. Each of the cells was cultured for 5 days. To check cell viability, a mixture provided in a CellTiter-Glo® Luminescent Cell Viability Assay Kit (Promega) was added to each of the cultured cell media, and cultured for another 10 minutes under a condition of 37° C. Then, a degree of luminescence (fluorescence) was measured. A degree of inhibition of the cell growth according to the treatment concentration of each of the compounds was calculated based on the fluorescence of the solvent control cells which were not treated with the compound. In this case, the concentration of each of the compounds inhibiting 50% of the cell growth was determined to be a GI50 (nM) value, and calculated using Prism (Version 7.01; GraphPad) software.
(§2) Next, the activities of the Example compounds against various types of carcinomas other than the TNBC were evaluated in a similar manner as described above. In the following table, the following active value range (GI50 (nM)) was used to evaluate cell proliferation inhibitory activity.

A549 = test: as above; type: cell-based
Description: as §1, §2

BxPC3 = test: as above; type: cell-based
Description: as §1, §2

HCT116 = test: as above; type: cell-based
Description: as §1, §2

TTK = biological target: T1, TTK (Homo sapiens, UniProt P33981); test: TTK enzyme activity, ADP-Glo kinase assay; type: biochemical; design: purchased SignalChem T20-10G; settings: purified human TTK, ATP 10 μM, 25° C., 2 hours
T1 sequence (P33981 1-857): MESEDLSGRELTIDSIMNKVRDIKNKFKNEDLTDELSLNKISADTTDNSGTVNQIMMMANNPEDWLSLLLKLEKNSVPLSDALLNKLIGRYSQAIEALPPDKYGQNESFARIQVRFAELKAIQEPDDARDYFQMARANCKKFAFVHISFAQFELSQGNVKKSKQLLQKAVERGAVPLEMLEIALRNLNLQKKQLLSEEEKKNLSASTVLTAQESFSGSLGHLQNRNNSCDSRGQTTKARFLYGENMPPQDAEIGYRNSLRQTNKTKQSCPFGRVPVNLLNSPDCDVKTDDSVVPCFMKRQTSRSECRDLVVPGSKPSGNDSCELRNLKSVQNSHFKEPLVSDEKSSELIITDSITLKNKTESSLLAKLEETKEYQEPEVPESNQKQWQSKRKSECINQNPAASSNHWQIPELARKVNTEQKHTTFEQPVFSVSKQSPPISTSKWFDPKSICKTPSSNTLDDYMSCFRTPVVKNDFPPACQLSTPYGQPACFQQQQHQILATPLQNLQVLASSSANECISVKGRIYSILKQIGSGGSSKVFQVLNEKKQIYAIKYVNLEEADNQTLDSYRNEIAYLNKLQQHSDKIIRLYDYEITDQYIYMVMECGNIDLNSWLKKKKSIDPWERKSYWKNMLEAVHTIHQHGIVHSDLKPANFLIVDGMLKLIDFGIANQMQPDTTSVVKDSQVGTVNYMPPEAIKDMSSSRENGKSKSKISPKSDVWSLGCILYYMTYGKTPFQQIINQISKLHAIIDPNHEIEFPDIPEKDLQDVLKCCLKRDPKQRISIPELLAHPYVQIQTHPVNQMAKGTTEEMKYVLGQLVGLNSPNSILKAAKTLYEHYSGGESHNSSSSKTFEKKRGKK
Method in brief: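 Purified human TTK (25 ng) incubated with 10 μM ATP and substrate (0.2 μg) for 2 h at 25 °C in Tris-HCl pH 7.4, MgCl2, BSA, DTT buffer. ADP formation read by ADP-Glo; inhibition calculated against untreated solvent control.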

MDA-MB-231 cells = test: Inhibition of proliferation of triple-negative breast cancer cells, CellTiter-Glo; type: cell-based; settings: Homo sapiens, 120 h; MDA-MB-231, cultured for 5 days
Method in brief: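 MDA-MB-231 cells pre-cultured 24 h (5% CO2, 37 °C), then exposed to compound for 5 days at 12 three-fold dilutions, final 10 μM to 0.05 nM. Viability read by CellTiter-Glo luminescence after 10 min at 37 °C; growth inhibition calculated relative to untreated solvent-control cells.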

SHP-77 = test: Inhibition of proliferation of small cell lung cancer cells, CellTiter-Glo; type: cell-based; settings: Homo sapiens, SHP77, 120 h; SHP-77, cultured for 5 days
Method in brief: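 SHP-77 cells at 2,000–3,000 cells/well, cultured 24 h at 37° C, 5% CO2, then given 12 threefold compound dilutions, final 10 μM to 0.05 nM, for 5 days. Viability by CellTiter-Glo luminescence relative to solvent control. GI50 from concentration–response.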

Row | SMILES | GI50 (DU145; Homo sapiens, DU-145) [nM] | GI50 (A549; Homo sapiens) [nM] | GI50 (BxPC3; Homo sapiens, BXPC-3) [nM] | GI50 (HCT116; Homo sapiens, HCT-116) [nM] | GI50 (DU145; DU145) [nM] | GI50 (A549) [nM] | GI50 (BxPC3; BxPC3) [nM] | GI50 (HCT116; HCT116) [nM] | IC50 (TTK) [nM] | GI50 (MDA-MB-231 cells) [nM] | GI50 (SHP-77) [nM]
1 | COc1cc(N2CCCC2=O)ccc1Nc1nc(NC2CCCC2)c2cc[nH]c2n1 [Example 47, 1-(4-((4-(cyclopentylamino)-7H-pyrrolo[2,3-d]pyrimidin-2-yl)amino)-3-methoxyphenyl) pyrrolidin-2-one] | < 100 | < 100 | < 100 | < 100 |  |  |  |  |  |  | 
2 | COc1cc(N2CCCC2=O)ccc1Nc1nc(NC2CCCCC2)c2cc[nH]c2n1 [Example 48] |  |  |  |  | < 100 | < 100 | < 100 | < 100 |  |  | 
3 | COc1cc(N2CCCC2=O)ccc1Nc1nc(NC2CCCC2)c2c(C(F)(F)F)c[nH]c2n1 [Example 52] | 100 to 1000 | 100 to 1000 | 100 to 1000 | 100 to 1000 |  |  |  |  |  |  | 
4 | COc1cc(N2CCCC2=O)ccc1Nc1nc(NC2CCCCC2)c2c(C(F)(F)F)c[nH]c2n1 [Example 53, 1-(4-((4-(cyclohexylamino)-5-(trifluoromethy1)-7H-pyrrolo[2,3-d]pyrimidin-2-yl)amino)-3-methoxyphenyl) pyrrolidin-2-one] | 100 to 1000 | 100 to 1000 | 100 to 1000 | 100 to 1000 |  |  |  |  | < 50 | 100 to 1000 | 
5 | CNc1nc(Nc2ccc(N3CCCC3=O)cc2OC)nc2[nH]cc(C#N)c12 [Example 54, 2-((2-methoxy-4-(2-oxopyrrolidin-1-yl)phenyl)amino)-4-(methylamino)-7H-pyrrolo[2,3-d] pyrimidine-5-carbonitrile] | 100 to 1000 | 100 to 1000 | 100 to 1000 | 100 to 1000 |  |  |  |  | 50 to 200 | 100 to 1000 | 
6 | COc1cc(N2CCCC2=O)ccc1Nc1nc(NC2CCCC2)c2c(C#N)c[nH]c2n1 [Example 55, 4-(cyclopentylamino)-2-((2-methoxy-4-(2-oxopyrrolidin-1-yl)phenyl)amino)-7H-pyrrolo[2,3-d] pyrimidine-5-carbonitrile] | < 100 | < 100 | < 100 | < 100 |  |  |  |  | < 50 | < 100 | 
7 | COc1cc(N2CCCC2=O)ccc1Nc1nc(NC2CCCCC2)c2c(C#N)c[nH]c2n1 [Example 56, 4-(cyclohexylamino)-2-((2-methoxy-4-(2-oxopyrrolidin-1-yl)phenyl)amino)-7H-pyrrolo[2,3-d] pyrimidine-5-carbonitrile] | < 100 | < 100 | < 100 | < 100 |  |  |  |  | < 50 | < 100 | < 100
8 | COc1cc(N2CCCC2=O)ccc1Nc1cc(NC2CCCCC2)c2c(C(F)(F)F)c[nH]c2n1 [Example 62, 1-(4-((4-(cyclohexylamino)-3-(trifluoromethyl)-1H-pyrrolo[2,3-b]pyridin-6-yl)amino)-3-methoxyphenyl) pyrrolidin-2-one] | 100 to 1000 | 100 to 1000 | 100 to 1000 | 100 to 1000 |  |  |  |  |  |  | 
9 | COc1cc(N2CCCC2=O)ccc1Nc1cc(NC2CCCC2)c2c(C#N)c[nH]c2n1 [Example 63, 4-(cyclopentylamino)-6-((2-methoxy-4-(2-oxopyrrolidin-1-yl)phenyl)amino)-1H-pyrrolo[2,3-b] pyridine-3-carbonitrile] | < 100 | < 100 | < 100 | < 100 |  |  |  |  | < 50 | 100 to 1000 | 
10 | CC1(C)CC(Nc2nc(Nc3cccc4c3OCCO4)nc3[nH]cc(C#N)c23)CCO1 (centres unmarked) [Example 171] |  |  |  |  |  |  |  |  | < 50 | < 100 | < 100
11 | Cn1nccc1-c1ccc(Nc2nc(NC3CCOC(C)(C)C3)c3c(C(F)(F)F)c[nH]c3n2)c2c1OCCO2 (centres unmarked) [Example 172, N^4-(2,2-dimethyltetrahydro-2H-pyran-4-yl)-N^2-(8-(1-methyl-1H-pyrazol-5-yl)-2,3-dihydrobenzo[b][1,4]dioxin-5-yl)-5-(trifluoromethyl)-7H-pyrrolo[2,3-d] pyrimidine-2,4-diamine] |  |  |  |  |  |  |  |  | < 50 | < 100 | < 100
12 | N#Cc1c[nH]c2nc(Nc3ccc(N4CCCS4(=O)=O)c(F)c3)nc(NC3CCCC3)c12 [Example 173, 4-(cyclopentylamino)-2-((4-(1,1-dioxidoisothiazolidin-2-yl)-3-fluorophenyl)amino)-7H-pyrrolo[2,3-d] pyrimidine-5-carbonitrile] |  |  |  |  |  |  |  |  | < 50 | 100 to 1000 | < 100
13 | COc1cc(N2CCCS2(=O)=O)ccc1Nc1nc(NC2CCOCC2)c2c(C(F)(F)F)c[nH]c2n1 [Example 174, 2-(3-methoxy-4-((4-((tetrahydro-2H-pyran-4-yl)amino)-5-(trifluoromethyl)-7H-pyrrolo[2,3-d]pyrimidin-2-yl)amino)phenyl)isot hiazolidine 1,1-dioxide] |  |  |  |  |  |  |  |  | < 50 | < 100 | < 100
14 | COc1cc(N2CCCCS2(=O)=O)ccc1Nc1nc(NC2CCOCC2)c2c(C(F)(F)F)c[nH]c2n1 [Example 175, 2-(3-methoxy-4-((4-((tetrahydro-2H-pyran-4-yl)amino)-5-(trifluoromethyl)-7H-pyrrolo[2,3-d]pyrimidin-2-yl)amino)phenyl)-1,2-thiazinane 1,1-dioxide] |  |  |  |  |  |  |  |  | < 50 | < 100 | < 100
15 | COc1cc(N2CCCS2(=O)=O)ccc1Nc1nc(NC2CCCC2)c2c(C(F)(F)F)c[nH]c2n1 [Example 176, 2-(4-((4-(cyclopentylamino)-5-(trifluoromethyl)-7H-pyrrolo[2,3-d]pyrimidin-2-yl)amino)-3-methoxyphenyl) isothiazolidine 1,1-dioxide] |  |  |  |  |  |  |  |  | 50 to 200 | 100 to 1000 | 100 to 1000
16 | COc1cc(N2CCCCS2(=O)=O)ccc1Nc1nc(NC2CCCC2)c2c(C(F)(F)F)c[nH]c2n1 [Example 177, 2-(4-((4-(cyclopentylamino)-5-(trifluoromethyl)-7H-pyrrolo[2,3-d]pyrimidin-2-yl)amino)-3-methoxyphenyl)-1,2-thiazinane 1,1-dioxide] |  |  |  |  |  |  |  |  | 50 to 200 | 100 to 1000 | 100 to 1000
